These results are taken from patent US8912318B2, “Nucleobase-functionalized conformationally restricted nucleotides and oligonucleotides for targeting nucleic acids” (University of Idaho, priority 2009, dated 2014).

Broadly, the ΔTm is the change in melting temperature against a reference sample. What is called Tm is the temperature at which the thermal transition is half complete.

Data set [1] relates to Hoogsteen mismatched dsDNA targets (SEQ ID NO: 4 : SEQ ID NO: 5), B:B′ = T:A, C:G, G:C. Put plainly: Thermal denaturation of Hoogsteen mismatched triplexes in the presence of Mg2+ ions. The data set is classed as binding. The following applies: for Tm of triplex: 10 mM MgCl2; for ΔTm: change relative to matched triplex. As to the method: (§1) Concentrations of all TFOs were determined using the extinction coefficient of 118500 L×(mol×cm)-1. 1 mL solution containing 1.0 nmol of each strand was denatured by heating and subsequently cooled to the starting temperature of the experiment in quartz optical cells with a path-length of 1.0 cm. Thermal denaturation profiles were recorded on a Cary 100 UV/VIS spectrophotometer equipped with a 12-cell Peltier temperature controller using a ramp of 0.5° C./min. Thermal denaturation temperatures (Tm) for triplex to duplex transitions were determined as the first derivative of difference thermal denaturation profiles (dA260 vs. T), which were obtained by subtracting the thermal denaturation profile of the dsDNA target (always included as one of the samples in multicell holder of UV-Vis spectrophotometer) from the raw thermal denaturation profile of the TFO+dsDNA (FIG. 13). Reported Tm-values are an average of at least two experiments within ±1.0° C.

In data set [2] the test system is dsDNA target (SEQ ID NO: 2 : SEQ ID NO: 3). Put plainly: UV thermal denaturation of triplexes formed by TFOs with dsDNA. The class given is binding. The following applies: for Tm of triplex: pH 7.0 phosphate buffer, 140 mM KCl, 1.0 μM each strand; for ΔTm/mod of triplex: relative to reference DNA TFO T1, per modification.
Data set [3] relates to dsDNA target (SEQ ID NO: 4 : SEQ ID NO: 5), B:B′ = A:T. Put plainly: Thermal denaturation of matched triplexes in the presence of Mg2+ ions. The data set is classed as binding. The following applies: A:T (match); 10 mM MgCl2. As for the experimental part: as §1
The test system of data set [4] is complementary DNA. Kind of data set: UV thermal denaturation of 13-mer fluorophore probes with complementary DNA. The class given is binding. The following applies: B = A.
Data set [5] relates to mismatched DNA targets. Put plainly: UV thermal denaturation of 13-mer fluorophore probes with mismatched DNA targets. The class given is binding. The following applies: for Tm / ΔTm: DNA: 3′-d(GCG TTG BGT TGC G); for ΔTm: relative to B = A; for mismatch ΔTm: mismatched vs complementary duplex.
In data set [6] the test system is mismatched RNA targets. Kind of data set: UV thermal denaturation of 13-mer probes with mismatched RNA targets. The class given is binding.
Data set [7] relates to complementary RNA. Kind of data set: UV thermal denaturation of 13-mer probes with complementary RNA. The class given is binding. Particulars: B = A.
Data set [8] relates to complementary or mismatched DNA targets. Put plainly: Steady-state fluorescence emission intensity with DNA targets. The following applies: for discrimination factor Im/Imm, range: intensity of duplex with complementary DNA divided by intensity of SSP or mismatched duplexes.
Data set [9] shares this test system. The following applies: cited from earlier work.
For data set [10] the test system is unchanged. Put plainly: Fluorescence quantum yields and extinction coefficients with DNA targets. The data set is classed as physicochemical.
The mark [11] stands for this setting: complementary DNA, [Na+] = 110 mM, pH 7.0, 1.0 μM each strand.
Setting [12] is: vs. the C-mismatched DNA target.

Like-named read-outs stand apart in the source and are kept apart here.

For the molecule “Y1′: TFO TTT TT^mC TBT ^mCT^mC T^mCT, B = Y′ (DNA TTTTTNTNTNTNTNT; 5-methyl-C, modified nucleotide Y', chemistry not fully specified)”, the Tm of triplex in data set [1] (C:G mismatch) was 13.5 °C; in data set [1] (G:C mismatch) it was 24.5 °C; in data set [1] (T:A mismatch), 12.0 °C; in data set [2] it was 37.5 °C; in data set [3], 47.5 °C. The ΔTm in [1] (C:G mismatch) was −34.0 °C; in data set [1] (G:C mismatch), −23.0 °C; in data set [1] (T:A mismatch), −35.5 °C. Moreover, the ΔTm/mod of triplex result in [2] was “+8.5 °C”.
As to “SEQ ID NO: 11: 5′-d(CGC AAC αCA ACG C (DNA CGCAACNCAACGC; α modified nucleotide, chemistry not fully specified)”, the Tm in data set [4] (DNA: 3′-d(GCG TTG BGT TGC G)) turned out to be 44.5 °C; in data set [5] (B = C), 43.0 °C; in data set [5] (B = G), 46.0 °C; in data set [5] (B = T), 45.0 °C. Also, the figures for the ΔTm result in [5] (B = C), in [5] (B = G) and in data set [5] (B = T) were “(−1.5) ° C”, “(+1.5) ° C” and “(+0.5) ° C”, respectively.
Regarding “SEQ ID NO: 10: 5′-d(CGC AAC γCA ACG C (DNA CGCAACNCAACGC; γ modified nucleotide, chemistry not fully specified)”, the Tm in [4] (DNA: 3′-d(GCG TTG BGT TGC G)) was determined as 47.0 °C; in [5] (B = C) it was 45.5 °C; in data set [5] (B = G) it was 46.5 °C; in data set [5] (B = T), 45.5 °C. Further, the thermal shift (ΔTm) result in data set [5] (B = C) is “(−1.5) ° C”; in data set [5] (B = G), “(-0.5) ° C”; in [5] (B = T), “(−1.5) ° C”.
In the case of “ON2: unmodified reference strand 5′-CG CAA CTC AAC GC (DNA CGCAACTCAACGC; DNA, backbone not given here) [reference compound]”, the “mismatch DTm” value was −15.5 °C in data set [6] (RNA target B = C), −3.0 °C in data set [6] (RNA target B = G) and −13.5 °C in [6] (RNA target B = U). Also, the Tm in data set [4] (DNA: 3′-d(GCG TTG BGT TGC G)) amounted to 55.5 °C; in data set [4] (setting [11]) it was 55.5 °C; in data set [7] it was 51.5 °C; in data set [5] (B = C), 42.0 °C; in data set [5] (B = G), 48.5 °C; in data set [5] (B = T), 46.5 °C. Moreover, the “mismatch ΔTm” value in data set [5] (DNA target B = C) is −13.5 °C; in data set [5] (DNA target B = G) it was −7.0 °C; in data set [5] (DNA target B = T), −9.0 °C. Also, the ΔTm entry in data set [5] (B = C) is on record as “(−13.5) ° C”; in data set [5] (B = G), “(−7.0) ° C”; in data set [5] (B = T) it was “(−9.0) ° C”.
For “ON11: 5′-CG CAA GPG AAC GC (DNA CGCAAGNGAACGC; listed as DNA, chemistry not fully specified)”, the “discrimination factor Im/Imm, range” value in data set [8] is 8.3-41.9.
For the molecule “SEQ ID NO: 9: 5′-d(CGC AAC βCA ACG C (DNA CGCAACNCAACGC; β modified nucleotide, chemistry not fully specified)”, the Tm in data set [4] (DNA: 3′-d(GCG TTG BGT TGC G)) was found to be 56.5 °C; in [5] (B = C), 43.0 °C; in [5] (B = G), 46.5 °C; in data set [5] (B = T), 48.5 °C. Moreover, the figures for the ΔTm result in [5] (B = C), in data set [5] (B = G) and in data set [5] (B = T) were “(−13.0) ° C”, “(−10.0) ° C” and “(−8.0) ° C”, respectively.
“ON10: 5′-CG CAA CPC AAC GC (DNA CGCAACNCAACGC; listed as DNA, chemistry not fully specified)”: the “discrimination factor Im/Imm, range” value in data set [8] was 7.3-15.9. Also, the Tm in [4] (DNA: 3′-d(GCG TTG BGT TGC G)) came out at 52.5 °C; in [5] (B = C), 43.0 °C; in data set [5] (B = G) it was 48.0 °C; in data set [5] (B = T) it was 46.0 °C. The ΔTm entry is listed as “(−9.5) ° C” in data set [5] (B = C), “(−4.5) ° C” in data set [5] (B = G) and “(−6.5) ° C” in data set [5] (B = T).
With `c1ccc(-c2c3ccccc3c(-c3ccccc3)c3ccccc23)cc1` [9,10-diphenylanthracene], in data set [9], the “fluorescence quantum yield ΦF” value is given as 0.95.
For the molecule `O=C(NCC#Cc1cn([C@H]2C[C@H](O)[C@@H](CO)O2)c(=O)[nH]c1=O)c1ccc2ccc3cccc4ccc1c2c34` [P″, 5-[3-(1-pyrenecarboxamido)propynyl]-2′-deoxyuridine], the “Fluorescence quantum yield (φF)” value in data set [10] (DNA target B = A, T = 5° C.) is given as 0.33-0.58.
As to `O=C(O)CCCc1ccc2ccc3cccc4ccc1c2c34` [pyrenebutanoic acid], the “fluorescence quantum yield ΦF, reported value” in data set [9] was 0.065. The “fluorescence quantum yield ΦF” value in data set [10] (in MeOH, relative to 9,10-diphenylanthracene) is on record as 0.069.
Consider “ON13: 5′-CG CAA AP′A AAC GC (DNA CGCAAANAAACGC; modified nucleotide P', chemistry not fully specified)”, for which the “discrimination factor Im/Imm, range” value in data set [8] is listed as 3.4-14.1.
For the molecule “X1′: TFO TTT TT^mC TBT ^mCT^mC T^mCT, B = X′ (DNA TTTTTNTNTNTNTNT; 5-methyl-C, modified nucleotide X', chemistry not fully specified) [reference compound]”, the Tm of triplex in data set [1] (C:G mismatch) stood at 15.5 °C; in [1] (G:C mismatch), 22.5 °C; in data set [1] (T:A mismatch) it was 10.0 °C; in data set [2] it was 35.5 °C; in [3] it was 45.0 °C. Besides, the ΔTm in data set [1] (C:G mismatch) is −29.5 °C; in data set [1] (G:C mismatch), −22.5 °C; in data set [1] (T:A mismatch) it was −35.0 °C. Moreover, the ΔTm/mod of triplex entry in data set [2] was “+6.5 °C”.
Turning to “ON1: unmodified reference strand 5′-CG CAA ATA AAC GC (DNA CGCAAATAAACGC; unmodified DNA) [reference compound]”, the melting temperature (Tm) in data set [4] (setting [11]) was 48.5 °C. In addition, the “mismatch ΔTm” value was −10.0 °C in data set [5] (DNA target B = C), −5.0 °C in data set [5] (DNA target B = G) and −9.0 °C in [5] (DNA target B = T).
With “V1′: TFO TTT TT^mC TBT ^mCT^mC T^mCT, B = V′ (DNA TTTTTNTNTNTNTNT; 5-methyl-C, modified nucleotide V', chemistry not fully specified)”, the Tm of triplex turned out to be 14.5 °C in data set [1] (C:G mismatch); 25.5 °C in data set [1] (G:C mismatch); 11.0 °C in data set [1] (T:A mismatch); 37.0 °C in data set [2]; 46.0 °C in data set [3]. Further, the values for the ΔTm in data set [1] (C:G mismatch), in [1] (G:C mismatch) and in [1] (T:A mismatch) were −31.5 °C, −20.5 °C and −36.0 °C, respectively. The ΔTm/mod of triplex result in data set [2] is “+8.0 °C”.
Regarding “ON14: 5′-CG CAA CP′C AAC GC (DNA CGCAACNCAACGC; modified nucleotide P', chemistry not fully specified)”, the “ΦF,m/ΦF,mm” value in [10] (setting [12]) is given as around 3.2. Besides, in data set [8] (setting [12]), the “discrimination factor Im/Imm” value is given as 5.8. Further, the Tm came out at 51.5 °C in [4] (DNA: 3′-d(GCG TTG BGT TGC G)), 40.5 °C in data set [5] (B = C), 44.5 °C in data set [5] (B = G) and 44.5 °C in data set [5] (B = T). The figures for the ΔTm result in data set [5] (B = C), in data set [5] (B = G) and in [5] (B = T) were “(−11.5) ° C”, “(−7.0) ° C” and “(−7.0) ° C”, respectively.
In the case of “ON16: 5′-CG CAA TP′T AAC GC (DNA CGCAATNTAACGC; modified nucleotide P', chemistry not fully specified)”, the “discrimination factor Im/Imm, range” value in [8] was 2.9-11.4.
